# Assay results published in patent publication US20240050582A1, “CONJUGATES INCLUDING MULTIPLE SACCHARIDIC CHAINS ON A LINEAR PROTEIN AND USES IN MAMMALS FEED” (UNIVERSITEIT GENT, priority 2021, published 2024).
# Like-named read-outs stand apart in the source and are kept apart here. Marks after values point to notes of the source that are not given here.
# Key:
# [1] = tested on: F18+ E. coli (strain 107/86); settings: for Conjugate inhibition (M) / M − C (measure of the specific blockage of F18 fimbriae by A6) / Optimal inhibitory dose: A6 supplied via the conjugate / Optimal inhibitory dose: Carrier supplied via the conjugate: Table 9; for Conjugate inhibition (M): A6-1 conjugate of the carrier, at its optimal inhibitory dose; for M − C (measure of the specific blockage of F18 fimbriae by A6): difference conjugate inhibition minus carrier inhibition; for Optimal inhibitory dose: A6 supplied via the conjugate / Optimal inhibitory dose: Carrier supplied via the conjugate: in vitro; for Average % inhibition: free A6-1 10 mg/ml (positive control)
# F18 E. coli [2] = assay: Part E: bacterial translocation in lymph nodes and spleen; settings: AGP
# β-hemolytic coliforms = format: in vivo, pig; settings: AGP (50 mg/kg carbadox)
# F18 E. coli [3] = format: in vivo, pig; settings: compared with positive control; P<0.05
# F18 E. coli [4] = assay: Part E: intestinal morphology; settings: linear
# [5] = tested on: F18ac bacteria 2134P (STa+ STb+); assay: In vivo small intestinal segment perfusion model (SISP); parameters: species or system pig
# F18+ E. coli = assay: Blocking assay with fluorescein conjugated A6-1 monomers; format: binding, Escherichia coli; settings: pre-incubation 1 h; actual A6-1 12 μg/ml (CMCL, CMCM), 120 μg/ml (polylysine); monomeric A6-1 1 mg/ml
# Procedure: A blocking assay was developed to understand inhibition. In this assay, F18+E. coli were first incubated for one hour at room temperature with either the carriers or A6-1 conjugates, while gently shaking. Concentrations used were chosen so that the actual A6-1 concentration was 12 μg/ml for A6-1 conjugated carriers CMCM and CMCL (and the similar concentration of non-conjugated carriers) or 120 μg/ml for the A6-1 conjugated carrier polylysine (A6-1-PL-14). […] Subsequently, fluorescein conjugated A6-1 monomers (A6-F) were added (1 mg/ml) for one hour at room temperature. The fluorescing oligosaccharide was labeled at the reducing end of the molecule with fluorescein (also named 6A1-FITC). Next free A6-1-fluorescein was washed away with PBS followed by centrifugation at 2000 g for 5 min and resuspensions of the pellet with PBS. This was repeated twice.
# If carriers without A6-1 bind to the bacteria, they will block the binding of A6-F and no fluorescence-bound bacteria can be detected by fluorescence microscopy. If there is no binding of the carrier to the bacteria in the first step of the test, fluorescing bacteria will be seen. […]
# As aforementioned, high non-AG based inhibition of most carriers was observed. […] Subsequently, fluorescence conjugated AG-1 monomers (AG-1-F) were added and binding of the fluorescing AG-1 to the bacteria was determined using a fluorescence microscope.
# [6] = d 5 PI, compared with the control, P<0.05
compound,measurement,setting,value
Pectin [reference compound],Conjugate inhibition (M),[1],64%
same,M − C (measure of the specific blockage of F18 fimbriae by A6),[1],−5%
same,Optimal inhibitory dose: A6 supplied via the conjugate,[1],1.2 µg/mL
same,Optimal inhibitory dose: Carrier supplied via the conjugate,[1],0.25 mg/mL
"COC(=O)N/N=C/c1c[n+]([O-])c2ccccc2[n+]1[O-] [AGP, carbadox]","Bacterial translocation, Lymph node",F18 E. coli [2]; d 5 PI,147^ab cfu/g
same,"Bacterial translocation, Spleen",F18 E. coli [2]; d 5 PI,47 cfu/g
same,"Bacterial translocation, Lymph node",F18 E. coli [2]; d 11 PI,279^ab cfu/g
same,"Bacterial translocation, Spleen",F18 E. coli [2]; d 11 PI,56^b cfu/g
same,percentage of β-hemolytic coliform,β-hemolytic coliforms; d 2 PI,31.56^b %
same,percentage of β-hemolytic coliform,β-hemolytic coliforms; d 5 PI,8.79^b %
same,percentage of β-hemolytic coliform,β-hemolytic coliforms; d 8 PI,2.77^b %
same,percentage of β-hemolytic coliform,β-hemolytic coliforms; d 11 PI,2.10%
CNCCCCC(CNCCCCC(N)C(=O)NCCCCC(N)C(C)=O)NCC(O)C(O)C(O[C@@H]1OC(CO)[C@H](O)C(O[C@@H]2OC(CO)[C@@H](O)C(O[C@@H]3OC(CO)[C@H](O)C(O[C@H]4OC(CO)[C@H](O)C(O)C4NC(C)=O)C3O[C@@H]3OC(C)[C@@H](O)C(O)C3O)C2NC(C)=O)C1O)C(O)CO (stereo partly drawn) [Coligo A6PL],feed efficiency from d 0 to 5 PI,F18 E. coli [3],enhanced
same,ratio of villi height to crypt depth in jejunum,F18 E. coli [4]; [6],enhanced
same,"villi height, ratio of villi height to crypt depth, and villi area in ileum",F18 E. coli [4]; [6],increased
same,"villi height, ratio of villi height to crypt depth, villi width, and villi area in duodenum",F18 E. coli [4]; [6],dose-dependently increased
same,ratio of villi height to crypt depth in jejunum and ileal villi height,"F18 E. coli [4]; d 11 PI, P<0.10",tended to increase
same,net absorption of perfusion fluid,"[5]; 2 μg/ml actual A6-1 (A6-1-PL-14), segment number 4",+0.03 g/cm^2
same,net absorption of perfusion fluid,"[5]; 8 μg/ml actual A6-1 (A6-1-PL-14), segment number 5",+0.21 g/cm^2
same,net absorption of perfusion fluid,[5]; 32 μg/ml actual A6-1 (number 6) or the same concentration of polylysine (number 8),0 g/cm^2
Alginate [reference compound],Conjugate inhibition (M),[1],41%
same,M − C (measure of the specific blockage of F18 fimbriae by A6),[1],−15%
same,Optimal inhibitory dose: A6 supplied via the conjugate,[1],0.6 µg/mL
same,Optimal inhibitory dose: Carrier supplied via the conjugate,[1],0.081 mg/mL
"CC(=O)N[C@H]1[C@@H](O[C@H]2[C@@H](O)[C@@H](CO)O[C@@H](O[C@H]3[C@H](O)[C@@H](CO)O[C@@H](O[C@H]4[C@@H](O)[C@@H](CO)O[C@@H](O[C@H]5[C@H](O)[C@@H](O)C(O)O[C@@H]5CO)[C@@H]4O)[C@@H]3NC(C)=O)[C@@H]2O[C@@H]2O[C@@H](C)[C@@H](O)[C@@H](O)[C@@H]2O)O[C@H](CO)[C@H](O)[C@@H]1O (stereo partly drawn) [A6-1, GalNAcα1-3(Fucα1-2)Galβ1-3GlcNAcβ1-3Galβ1-4Glc, reference compound]",Average % inhibition,[1]; Table 8-A,71.3%
same,Average % inhibition,[1]; Table 8-B CMCL type 1,69.5%
same,Average % inhibition,[1]; Table 8-B CMCL type 2,57.05%
same,Average % inhibition,[1]; Table 8-C CMCM type 1,63.6%
same,Average % inhibition,[1]; Table 8-C CMCM type 2,61.26%
same,fluorescence of bacteria after A6-1-fluorescein (blocking of A6-F binding),F18+ E. coli,completely abolished fluorescence
